Measurements as given in PubChem BioAssay AID1963839 (Molecular Pharmacology Branch, DTP, NCI, 2024).

Tested on: 817829-284-R-J1-PDC complex spheroid viability
Test: Anticancer human tumor 817829-284-R-J1-PDC patient-derived colon adenocarcinoma cell line growth inhibition [POLQ]
Conditions: for IC50: curve of first compound; for viability, T/C: stronger effect = lower value
How it was run: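 Complex spheroid viability model combining PDC tumour cells with endothelial (HUVEC) and MSC stromal cells. Novobiocin, ART-558 or RP6685 were tested singly and in combination with standard and investigational anticancer drugs. Each was titrated in half-log steps from near clinical Cmax, or from 10 microM where Cmax was unknown.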

[1] = second compound 0.0316 µM, first compound 0.0316 µM
[2] = second compound 0.0316 µM, first compound 0.1 µM
[3] = second compound 0.0316 µM, first compound 0.316 µM
[4] = second compound 0.0316 µM, first compound 1 µM
[5] = second compound 0.0316 µM, first compound 3.16 µM
[6] = second compound 0.0316 µM, first compound 10 µM
[7] = second compound 0.1 µM, first compound 0.0316 µM
[8] = second compound 0.1 µM, first compound 0.1 µM
[9] = second compound 0.1 µM, first compound 0.316 µM
[10] = second compound 0.1 µM, first compound 1 µM
[11] = second compound 0.1 µM, first compound 3.16 µM
[12] = second compound 0.1 µM, first compound 10 µM
[13] = second compound 0.316 µM, first compound 0.0316 µM
[14] = second compound 0.316 µM, first compound 0.1 µM
[15] = second compound 0.316 µM, first compound 0.316 µM
[16] = second compound 0.316 µM, first compound 1 µM
[17] = second compound 0.316 µM, first compound 3.16 µM
[18] = second compound 0.316 µM, first compound 10 µM
[19] = second compound 1 µM, first compound 0.0316 µM
[20] = second compound 1 µM, first compound 0.1 µM
[21] = second compound 1 µM, first compound 0.316 µM
[22] = second compound 1 µM, first compound 1 µM
[23] = second compound 1 µM, first compound 3.16 µM
[24] = second compound 1 µM, first compound 10 µM
[25] = second compound 3.16 µM, first compound 0.0316 µM
[26] = second compound 3.16 µM, first compound 0.1 µM
[27] = second compound 3.16 µM, first compound 0.316 µM
[28] = second compound 3.16 µM, first compound 1 µM
[29] = second compound 3.16 µM, first compound 3.16 µM
[30] = second compound 3.16 µM, first compound 10 µM
[31] = second compound 10 µM, first compound 0.0316 µM
[32] = second compound 10 µM, first compound 0.1 µM
[33] = second compound 10 µM, first compound 0.316 µM
[34] = second compound 10 µM, first compound 1 µM
[35] = second compound 10 µM, first compound 3.16 µM
[36] = second compound 10 µM, first compound 10 µM
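Also: spheroids exposed to compounds for 7 days.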
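For viability, T/C in this document: 100% = DMSO vehicle-treated spheroids.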

CC1COCCN1c1cc(C2(S(C)(=N)=O)CC2)nc(-c2ccnc3[nH]ccc23)n1 (stereo unspecified) + COC1C(OC(N)=O)C(O)C(Oc2ccc3c(O)c(NC(=O)c4ccc(O)c(CC=C(C)C)c4)c(=O)oc3c2C)OC1(C)C
IC50 (second compound 0.0316 µM): 0.338 µM
IC50 (second compound 0.1 µM): 0.422 µM
IC50 (second compound 0.316 µM): 0.363 µM
IC50 (second compound 1 µM): 0.44 µM
IC50 (second compound 3.16 µM): 0.169 µM
IC50 (second compound 10 µM): 0.241 µM
viability, T/C [1]: 85.6%
viability, T/C [2]: 74.6%
viability, T/C [3]: 53.1%
viability, T/C [4]: 19.9%
viability, T/C [5]: 6.56%
viability, T/C [6]: 4.6%
viability, T/C [7]: 98.5%
viability, T/C [8]: 105%
viability, T/C [9]: 58.7%
viability, T/C [10]: 19.9%
viability, T/C [11]: 7.9%
viability, T/C [12]: 4.68%
viability, T/C [13]: 92.7%
viability, T/C [14]: 76.3%
viability, T/C [15]: 56.8%
viability, T/C [16]: 21%
viability, T/C [17]: 6.66%
viability, T/C [18]: 4.27%
viability, T/C [19]: 94.5%
viability, T/C [20]: 110%
viability, T/C [21]: 59.2%
viability, T/C [22]: 23.4%
viability, T/C [23]: 9.79%
viability, T/C [24]: 4.86%
viability, T/C [25]: 89.9%
viability, T/C [26]: 60.2%
viability, T/C [27]: 37.9%
viability, T/C [28]: 20.8%
viability, T/C [29]: 8.42%
viability, T/C [30]: 4.19%
viability, T/C [31]: 111%
viability, T/C [32]: 63.3%
viability, T/C [33]: 51.7%
viability, T/C [34]: 24.6%
viability, T/C [35]: 9.19%
viability, T/C [36]: 4.6%

CCCS(=O)(=O)Nc1ccc(F)c(C(=O)c2c[nH]c3ncc(-c4ccc(Cl)cc4)cc23)c1F + COC1C(OC(N)=O)C(O)C(Oc2ccc3c(O)c(NC(=O)c4ccc(O)c(CC=C(C)C)c4)c(=O)oc3c2C)OC1(C)C
IC50 (second compound 0.0316 µM): 2.41 µM
IC50 (second compound 0.1 µM): 3.34 µM
IC50 (second compound 0.316 µM): 4.39 µM
IC50 (second compound 1 µM): 2.9 µM
IC50 (second compound 3.16 µM): 5.23 µM
IC50 (second compound 10 µM): 3.52 µM
viability, T/C [1]: 76%
viability, T/C [2]: 77%
viability, T/C [3]: 73.6%
viability, T/C [4]: 73.4%
viability, T/C [5]: 42.9%
viability, T/C [6]: 16.6%
viability, T/C [7]: 76.6%
viability, T/C [8]: 74.8%
viability, T/C [9]: 43.4%
viability, T/C [10]: 86.7%
viability, T/C [11]: 51.9%
viability, T/C [12]: 12.8%
viability, T/C [13]: 48.3%
viability, T/C [14]: 71.4%
viability, T/C [15]: 58.7%
viability, T/C [16]: 71.2%
viability, T/C [17]: 68.5%
viability, T/C [18]: 15.9%
viability, T/C [19]: 86.4%
viability, T/C [20]: 80.6%
viability, T/C [21]: 48.5%
viability, T/C [22]: 74.6%
viability, T/C [23]: 51.6%
viability, T/C [24]: 13%
viability, T/C [25]: 76.3%
viability, T/C [26]: 76.8%
viability, T/C [27]: 89.3%
viability, T/C [28]: 79.1%
viability, T/C [29]: 76.3%
viability, T/C [30]: 16.1%
viability, T/C [31]: 82%
viability, T/C [32]: 86.4%
viability, T/C [33]: 62.1%
viability, T/C [34]: 86.4%
viability, T/C [35]: 53.8%
viability, T/C [36]: 13%

CCc1c2c(nc3ccc(O)cc13)-c1cc3c(c(=O)n1C2)COC(=O)[C@]3(O)CC + COC1C(OC(N)=O)C(O)C(Oc2ccc3c(O)c(NC(=O)c4ccc(O)c(CC=C(C)C)c4)c(=O)oc3c2C)OC1(C)C
IC50 (second compound 0.0316 µM): < 0.00316 µM
IC50 (second compound 0.1 µM): < 0.00316 µM
IC50 (second compound 0.316 µM): < 0.00316 µM
IC50 (second compound 1 µM): < 0.00316 µM
IC50 (second compound 3.16 µM): < 0.00316 µM
IC50 (second compound 10 µM): < 0.00316 µM
viability, T/C (second compound 0.0316 µM, first compound 0.00316 µM): 25.5%
viability, T/C (second compound 0.0316 µM, first compound 0.01 µM): 17.6%
viability, T/C [1]: 10.6%
viability, T/C [2]: 8.89%
viability, T/C [3]: 5.32%
viability, T/C [4]: 3.77%
viability, T/C (second compound 0.1 µM, first compound 0.00316 µM): 17.9%
viability, T/C (second compound 0.1 µM, first compound 0.01 µM): 16.7%
viability, T/C [7]: 11%
viability, T/C [8]: 7%
viability, T/C [9]: 5.78%
viability, T/C [10]: 3%
viability, T/C (second compound 0.316 µM, first compound 0.00316 µM): 21.2%
viability, T/C (second compound 0.316 µM, first compound 0.01 µM): 15%
viability, T/C [13]: 11.7%
viability, T/C [14]: 8.14%
viability, T/C [15]: 5.95%
viability, T/C [16]: 2.76%
viability, T/C (second compound 1 µM, first compound 0.00316 µM): 18.1%
viability, T/C (second compound 1 µM, first compound 0.01 µM): 16.1%
viability, T/C [19]: 11.3%
viability, T/C [20]: 7.95%
viability, T/C [21]: 8.47%
viability, T/C [22]: 3.04%
viability, T/C (second compound 3.16 µM, first compound 0.00316 µM): 14.1%
viability, T/C (second compound 3.16 µM, first compound 0.01 µM): 16.3%
viability, T/C [25]: 11%
viability, T/C [26]: 7.05%
viability, T/C [27]: 4.82%
viability, T/C [28]: 3.32%
viability, T/C (second compound 10 µM, first compound 0.00316 µM): 23.3%
viability, T/C (second compound 10 µM, first compound 0.01 µM): 14.8%
viability, T/C [31]: 12.8%
viability, T/C [32]: 6.77%
viability, T/C [33]: 5.07%
viability, T/C [34]: 2.89%
